Tests used:
rat [1] = assay: Acute toxicity in the oral rat, LD50; type: in vivo
rat [2] = assay: Acute toxicity in the rat by inhalation, LD50; type: in vivo; conditions: 4 hours
Inflammability in air = type: physicochemical; conditions: marked § flammable

SMILES | Acute toxicity in the oral rat, LD50 (rat [1]) [ppmv/4 hours] | Acute toxicity in the rat by inhalation, LD50 (rat [2]) [ppmv/4 hours] | Inflammability in air, % volume (Inflammability in air)
FC(Cl)(Cl)Cl [CFC 11, trichloro-fluoromethane] | >1000 | 26200 | 
FC(F)OC(F)(F)C(F)(F)OC(F)F [HCF2OCF2CF2OCF2H, 1-difluoromethoxy-1,1,2,2-tetrafluoroethyl difluoromethyl ether] | >5000 | >32000 | 
FC(F)OC(F)(F)OC(F)F [HCF2OCF2OCF2H, difluoromethoxy-bis(difluoromethyl ether)] | >5000 | >32000 | 
CC(F)(Cl)Cl [HCFC 141b, 1,1-dichloro-1-fluoroethane] | >5000 | 62000 | 7.6-17.7§ % volume
